Read-outs that look alike come from different tables or passages of the source.
How the values were obtained:
[1] = target: T1, recombinant human MOR (Homo sapiens, UniProt P35372); assay: Calcium mobilization assay, CHO-MOR cells expressing Gαqi5; format: cell-based; details: for MOR pEC50 (CL95%): agonist mode, crc incomplete = incomplete concentration response curve at 10 μM
T1 construct: expressed in transfected cells; gift of Dr. Larry Toll (SRI International); infected with a retrovirus for Gαqi5

[2] = target: T2, recombinant human DOR (Homo sapiens, UniProt P41143); assay: Calcium mobilization assay, CHO-DOR cells expressing GαqG66Di5; format: cell-based; details: for DOR pEC50 (CL95%): agonist mode, crc incomplete = incomplete concentration response curve at 10 μM
T2 construct: expressed in transfected cells; supplied by Dr. Eva Varga (University of Arizona); infected with a retrovirus for GαqG66Di5
Description: (§1) The pharmacological characterization of LP1 derivatives 2 and 10–16 was performed by calcium mobilization assay (Table 2). This procedure was preliminarily validated through a series of experiments where the effects of DPDPE, dermorphin, and dynorphin A were assessed in CHO cells expressing the human recombinant opioid receptors and Gαqi5 or GαqG66Di5 chimeric proteins.
(§2) Chinese hamster ovary (CHO) cells expressing the recombinant human MOR and KOR (CHO^MOR and CHO^KOR) were kindly provided by Dr. Larry Toll (SRI International, Menlo Park, CA, USA), and CHO cells expressing the recombinant human DOR (CHO^DOR) were supplied by Dr. Eva Varga (Department of Medical Pharmacology, The University of Arizona, Tucson, AZ, USA). CHO cells lines permanently coexpressing the opioid receptors and the C-terminally modified Gαqi5 were prepared by infecting the CHO lines described above with a recombinant retrovirus expressing the chimeric α subunit and the hygromycin resistance gene. Similarly, CHO cells lines permanently coexpressing DOR and the C-terminally modified GαqG66Di5 were prepared by infecting the CHO lines described above with a recombinant retrovirus expressing the chimeric α subunit and the hygromycin resistance gene. Polyclonal cell lines were generated using the pantropic retroviral expression system form BD-Clontech, as described previously. Stable lines were selected under hygromycin B (100 μg/mL) and geneticin (600 μg/mL) for 2–3 weeks after the infection.
(§3) CHO cells, expressing human opioid receptors and the Gαqi5 protein, and CHODOR, expressing the GαqG66Di5 protein, were maintained in culture medium consisting of Dulbecco minimum essential medium (DMEM) and Ham F-12 (1:1) (50/50) supplemented with 10% fetal calf serum (FCS), L-glutamine (2 mM), geneticin (200 μg/mL; G418), hygromycin B (100 μg/mL) at 37 °C in 5% CO2 humidified air. When confluence was reached (3–4 days), cells were subcultured as required using trypsin/EDTA, and used for experimentation. The different cell lines were seeded at a density of […] into black 96-well, clear-bottomed plates. After 24 h incubation, the cells were loaded with medium supplemented with 2.5 mM probenecid, 3 μM of the calcium sensitive fluorescent dye Fluo-4 AM, and 0.01% pluronic acid, for 30 min at 37 °C. Afterwards, the loading solution was aspirated and 100 μL/well of assay buffer—HBSS supplemented with 20 mM HEPES, 2.5 mM probenecid and 500 μM Brilliant Black (Aldrich, St. Louis, MO, USA)—was added. Serial dilutions of ligands for experimental use were made in HBSS/HEPES (20 mM) buffer (containing 0.005% BSA fraction V). After placing both plates (cell culture and compound plate) into the FlexStation II (Molecular Device, Union City, San Jose, CA 94587, USA), fluorescence changes were measured at room temperature. Online additions were carried out in a volume of 50 μL/well. Antagonists were incubated 15 min before the addition of the agonist. Maximum change in fluorescence, expressed in percent of baseline fluorescence, was used to determine agonist response.
(§4) Analysis of the binding data was performed using the Origin 7.5 software (OriginLab Corporation, Northampton, MA, USA). In calcium mobilization experiments, data were analyzed by non-linear curve fitting equation, using GraphPad 5.0 software. […] Ligand efficacy was expressed as intrinsic activity (α), calculated as the ratio between the Emax of the ligand and that of the respective standards. Calcium mobilization data were expressed as FIU (fluorescence intensity units) in percent, over the baseline. Agonist potencies are given as pEC50 (the negative logarithm to base 10 of the molar concentration of an agonist that produces 50% of the maximal possible effect, Emax). Concentration response curves to agonists were fitted with the following equation: Effect = baseline + (Emax − baseline)/(1+10^(LogEC50 − X) ∗ HillSlope) where X is the agonist concentration. […]

[3] = target: T3, rat-MOR (Rattus norvegicus, UniProt P33535); design: method as in PMID 27234885; details: read-out: Ki (μM) ± SEM MOR; [3H]-DPN displacement; cited from earlier work
T3 construct: expressed in transfected cells

[4] = target: T4, rat-DOR (Rattus norvegicus, UniProt P33533); design: method as in PMID 27234885; details: read-out: Ki (μM) ± SEM DOR; [3H]-DPN displacement; cited from earlier work
T4 construct: expressed in transfected cells

[5] = target: T5, human-KOR (Homo sapiens, UniProt P41145); design: expressed in transfected cells; method as in PMID 27234885; details: read-out: Ki (μM) ± SEM KOR; [3H]-DPN displacement; cited from earlier work
[6] = target: T5, human-KOR; assay: Calcium mobilization assay, CHO-KOR cells expressing Gαqi5; format: cell-based; design: expressed in transfected cells; gift of Dr. Larry Toll (SRI International); infected with a retrovirus for Gαqi5; details: for KOR pEC50 (CL95%): agonist mode, crc incomplete = incomplete concentration response curve at 10 μM
Description: as §1, §2, §3, §4

[7] = target: T3, rat-MOR; assay: Radioligand competition binding, [3H]-DPN, HEK293 membranes, MOR; details: [3H]-DPN displacement; means ± SEM of three experiments in duplicate; read-out: Ki (μM) ± SEM MOR
Description: (§5) All synthesized compounds were tested in vitro by radioligand competition binding using [^3H]-diprenorphine ([^3H]-DPN) to measure the affinity for opioid receptor subtypes in membranes from HEK293 cells stably expressing either MOR, DOR, or KOR, as previously described.
(§6) Confluent monolayers of HEK293 (human embryonic kidney 293) cells stably expressing rat-MOR, rat-DOR, or human-KOR were harvested, collected by centrifugation at 1500 rpm for 5 min, and washed once with phosphate-buffered saline (PBS) at pH 7.5. Membranes from cell pellets were carried out as described by Georgoussi and Zioudrou (1993) and Papakonstantinou et al. (2015). Briefly, cell pellets were resuspended in ice-cold membrane buffer (10 mM Tris-HCl, pH 7.5 and 0.1 mM EDTA), homogenized, and centrifuged at 2,000 g for 3 min at 4 °C. Supernatants were further centrifuged at 45,000 rpm for 30 min at 4 °C. The membrane pellet was resuspended in ice-cold membrane buffer at a protein concentration of approximately 1 mg/mL and stored in aliquots at −70 °C. Protein concentration was determined according to Bradford assay.
(§7) In the experiments designed to define compound affinity and selectivity for MOR, DOR, and KOR, membranes expressing each of these opioid receptors ([…]) were incubated at 30 °C for 45 min in buffer containing 50 mM Tris-HCl, pH 7.5, 100 mM NaCl, and 10 mM MgCl2 as described by Georgoussi et al. […] The ability of compounds 10–16 to displace [^3H]-DPN (3.75 nM) binding to the opioid receptors was assessed as described by Morou And Georgoussi (2005). Non-specific binding was measured in the presence of […] Naloxone. The reaction was stopped by rapid filtration and three washes in ice-cold 50 mM Tris-HCl, pH 7.4, through GF/C filters (Whatman, Maidstone, UK) using an automated cell harvester (Brandel Inc., Gaithersburg, MD, USA). The radioactivity was measured by liquid scintillation counting (Liquid Scintillation Analyzer, Packard).
(§8) Analysis of the binding data was performed using the Origin 7.5 software (OriginLab Corporation, Northampton, MA, USA). In calcium mobilization experiments, data were analyzed by non-linear curve fitting equation, using GraphPad 5.0 software. […] Ligand efficacy was expressed as intrinsic activity (α), calculated as the ratio between the Emax of the ligand and that of the respective standards. Calcium mobilization data were expressed as FIU (fluorescence intensity units) in percent, over the baseline. Agonist potencies are given as pEC50 (the negative logarithm to base 10 of the molar concentration of an agonist that produces 50% of the maximal possible effect, Emax). Concentration response curves to agonists were fitted with the following equation: Effect = baseline + (Emax − baseline)/(1+10^(LogEC50 − X) ∗ HillSlope) where X is the agonist concentration.

[8] = target: T4, rat-DOR; assay: Radioligand competition binding, [3H]-DPN, HEK293 membranes, DOR; details: [3H]-DPN displacement; means ± SEM of three experiments in duplicate; read-out: Ki (μM) ± SEM DOR
Description: as §5, §6, §7, §8

[9] = target: T5, human-KOR; assay: Radioligand competition binding, [3H]-DPN, HEK293 membranes, KOR; design: expressed in transfected cells; details: [3H]-DPN displacement; means ± SEM of three experiments in duplicate; read-out: Ki (μM) ± SEM KOR
Description: as §5, §6, §7, §8

Row | SMILES | Kb [1] [nM] | MOR pEC50 (CL95%) ([1]; Inactive = inactive at 10 μM) | Kb [2] [nM] | DOR pEC50 (CL95%) ([2]; Inactive = inactive at 10 μM) | Ki [3] [µM] | Ki [4] [µM] | Ki [5] [µM] | Kb [6] [nM] | KOR pEC50 (CL95%) ([6]; Inactive = inactive at 10 μM) | Ki [7] [µM] | Ki [8] [µM] | Kb ([1]; antagonist mode, dermorphin as agonist, Inactive = inactive at 10 μM, read-out: MOR pKB (CL95%) (converted)) [nM] | DOR pKB (CL95%) ([2]; antagonist mode, DPDPE as agonist, Inactive = inactive at 10 μM) | melting point | Ki [9] [µM] | KOR pKB (CL95%) ([6]; antagonist mode, dynorphin A as agonist, Inactive = inactive at 10 μM)
1 | CC1C2Cc3ccc(O)cc3C1(C)CCN2CCC(=O)Nc1cccc2ccccc12 (stereo not shown) [Compound 2] | 12.6 | Inactive ^e | 166 | Inactive | 0.038 ± 0.004 | 0.21 ± 0.03 | 0.8 ± 0.016 | 1380 | Inactive |  |  |  |  |  |  | 
2 | C[C@H]1[C@H]2Cc3ccc(O)cc3[C@]1(C)CCN2CCC(=O)N1CCc2ccccc21 [Compound 14, 1-(2,3-Dihydro-1H-indol-1-yl)-3-[(2R,6R,11R)-8-hydroxy-6,11-dimethyl-1,4,5,6-tetrahydro-2,6-methano-3-benzazocin-3(2H)-yl]propan-1-one] |  | Inactive |  | Inactive |  |  |  |  | Inactive | 0.4 ± 0.03 | 1.4 ± 0.12 | 1150 | Inactive | 169 °C (dec.) | 1.6 ± 0.12 | Inactive
